Molecules are shown by their SMILES.

In assay [1] the target is T1, C-C chemokine receptor type 1 (Homo sapiens) (UniProt P32246).
T1 sequence (whole entry): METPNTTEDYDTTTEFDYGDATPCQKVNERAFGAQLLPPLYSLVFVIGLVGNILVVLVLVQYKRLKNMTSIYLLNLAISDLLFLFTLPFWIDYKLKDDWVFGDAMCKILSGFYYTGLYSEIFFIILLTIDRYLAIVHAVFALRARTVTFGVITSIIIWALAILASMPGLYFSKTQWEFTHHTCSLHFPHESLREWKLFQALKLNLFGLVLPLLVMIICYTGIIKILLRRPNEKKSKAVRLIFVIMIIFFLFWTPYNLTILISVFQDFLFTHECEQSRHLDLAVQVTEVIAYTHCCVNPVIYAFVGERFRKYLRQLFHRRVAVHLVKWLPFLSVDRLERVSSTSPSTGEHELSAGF
The assay is described as follows: Inhibition of [125I]-MIP-1 alpha binding to recombinant human C-C chemokine receptor type 1 expressed in HEK293 cells at 10 uM concentration. The format is cell-based.

The target of assay [2] is T1, C-C chemokine receptor type 1 (Homo sapiens). Nature of the assay: Inhibition of [125I]-MIP-1 alpha binding to recombinant human C-C chemokine receptor type 1 expressed in HEK293 cells at 3 uM concentration. The format is cell-based.

As usually defined, the inhibition is the change of the read-out against control, counted positive when it falls. In the case of `COC(=O)C1(c2ccccc2)CCN(CCCC2(C#N)c3ccccc3Cc3ccccc32)CC1`, in assay [1], the inhibition was 62%.

For the compound `N#CC(CCCN1CCC(O)(c2ccc(Cl)cc2)CC1)c1cccc2ccccc12` (centres undefined), the inhibition in assay [1] was found to be 51%.

In the case of `N#CC(CCCN1CCC(O)(c2ccc(-c3ccccc3)cc2)CC1)(c1ccccc1)c1ccccc1`, in assay [1], the inhibition came out at 30%.

Take `N#CC(CCCN1CCCC(O)(c2ccc(F)cc2)C1)(c1ccccc1)c1ccccc1` (centres undefined): the inhibition in assay [1] amounted to 0%.

Turning to `N#CC(CCCN1CCC(O)(c2ccc(Cl)cc2)CC1)c1cccc(OCc2ccccc2)c1` (centres undefined), the inhibition in assay [1] was 0%.

As for `N#CC(CCCN1CCC(O)(c2ccc(Cl)cc2)CC1)c1ccccc1C(F)(F)F` (centres undefined), in assay [1], the inhibition was determined as 25%.

As for `N#CC1(CCCN2CCC(C(O)(c3ccccc3)c3ccccc3)CC2)c2ccccc2CSc2ccccc21` (centres undefined), in assay [2], the inhibition was 0%.

Take `N#CC(CCCN1CCC(O)(c2ccc(Cl)cc2)CC1)c1ccccc1OCc1ccccc1` (centres undefined): in assay [1], the inhibition worked out at 46%.

As for `N#CC(CCCN1CCC(O)(c2ccc(N)cc2)CC1)(c1ccccc1)c1ccccc1`, in assay [1], the inhibition was determined as 33%.

`N#CC(CCCN1CCC(O)(c2ccc(F)cc2)C1)(c1ccccc1)c1ccccc1` (centres undefined): the inhibition in assay [1] amounted to 22%.

On to `CC(=O)C1(c2ccccc2)CCN(CCCC2(C#N)c3ccccc3CSc3ccccc32)CC1` (centres undefined), for which the inhibition in assay [2] stood at 0%.

As for `N#CC1(CCCN2CCC(c3ccccc3)CC2)c2ccccc2CSc2ccccc21` (centres undefined), in assay [2], the inhibition worked out at 19%.

As to `N#CC1(c2ccccc2)CCN(CCCC2(C#N)c3ccccc3CSc3ccccc32)CC1` (centres undefined), the inhibition in assay [2] is 0%.

For `N#CC1(CCCN2CCC(C(=O)O)(c3ccccc3)CC2)c2ccccc2Cc2ccccc21`, the inhibition in assay [1] is 15%.

These data come from ChEMBL document CHEMBL1132282, “Discovery of novel non-peptide CCR1 receptor antagonists” (J Med Chem, 1999).
